Source: ChEMBL document CHEMBL1145176, “Somatostatin receptor 1 selective analogues: 2. N(alpha)-Methylated scan” (J Med Chem, 2005)
pIC50: −log10 of the molar value. Positions of bridges follow the written chain, without caps; N, C: chain ends. Non-standard residues stand in square brackets, D forms with d. Residues, ends and D or L forms follow the SMILES beside them. NMePhe(4-CH2NHiPr) = CN[C@@H](Cc1ccc(CNC(C)C)cc1)C(=O)O; Phe(4-CH2NHiPr) = CC(C)NCc1ccc(C[C@H](N)C(=O)O)cc1; d2Nal = N[C@H](Cc1ccc2ccccc2c1)C(=O)O; NMeS = CN[C@@H](CO)C(=O)O

What was measured:
[1] = biological target: Somatostatin receptor type 1 (Homo sapiens, UniProt P30872); assay: Inhibition of [Leu8,D-Trp22,125I-Tyr25]SRIF-28 binding to human somatostatin receptor type 1
[2] = biological target: Somatostatin receptor type 3 (Homo sapiens, UniProt P32745); assay: Inhibition of [Leu8,D-Trp22,125I-Tyr25]SRIF-28 binding to human somatostatin receptor type 3
[3] = biological target: Somatostatin receptor type 5 (Homo sapiens, UniProt P35346); assay: Inhibition of [Leu8,D-Trp22,125I-Tyr25]SRIF-28 binding to human somatostatin receptor type 5
[4] = biological target: Somatostatin receptor type 4 (Homo sapiens, UniProt P31391); assay: Inhibition of [Leu8,D-Trp22,125I-Tyr25]SRIF-28 binding to human somatostatin receptor type 4
[5] = biological target: Somatostatin receptor type 2 (Homo sapiens, UniProt P30874); assay: Inhibition of [Leu8,D-Trp22,125I-Tyr25]SRIF-28 binding to human somatostatin receptor type 2
Sequence of Somatostatin receptor type 2 (P30874 whole entry): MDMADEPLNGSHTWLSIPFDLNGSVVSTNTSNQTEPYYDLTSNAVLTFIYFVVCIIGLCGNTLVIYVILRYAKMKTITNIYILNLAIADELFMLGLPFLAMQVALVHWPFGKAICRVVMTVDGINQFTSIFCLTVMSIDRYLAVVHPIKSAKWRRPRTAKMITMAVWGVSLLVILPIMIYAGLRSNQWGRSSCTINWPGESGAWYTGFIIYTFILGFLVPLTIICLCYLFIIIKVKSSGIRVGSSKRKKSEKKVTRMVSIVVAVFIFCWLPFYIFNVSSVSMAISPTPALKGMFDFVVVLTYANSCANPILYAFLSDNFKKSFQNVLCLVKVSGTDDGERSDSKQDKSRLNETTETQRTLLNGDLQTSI

Sequence of Somatostatin receptor type 1 (P30872 whole entry): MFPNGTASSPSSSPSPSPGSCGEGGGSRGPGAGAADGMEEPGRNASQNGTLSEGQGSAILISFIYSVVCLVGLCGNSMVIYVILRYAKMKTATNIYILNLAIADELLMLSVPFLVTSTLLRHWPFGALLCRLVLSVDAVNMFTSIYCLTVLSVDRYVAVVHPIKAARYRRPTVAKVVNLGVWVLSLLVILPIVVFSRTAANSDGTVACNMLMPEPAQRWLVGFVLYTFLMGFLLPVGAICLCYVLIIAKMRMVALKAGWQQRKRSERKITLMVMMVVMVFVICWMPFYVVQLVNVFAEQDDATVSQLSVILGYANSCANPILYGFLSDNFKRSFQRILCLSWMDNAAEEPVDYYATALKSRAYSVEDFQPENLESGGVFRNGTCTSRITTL
Sequence of Somatostatin receptor type 4 (P31391 whole entry): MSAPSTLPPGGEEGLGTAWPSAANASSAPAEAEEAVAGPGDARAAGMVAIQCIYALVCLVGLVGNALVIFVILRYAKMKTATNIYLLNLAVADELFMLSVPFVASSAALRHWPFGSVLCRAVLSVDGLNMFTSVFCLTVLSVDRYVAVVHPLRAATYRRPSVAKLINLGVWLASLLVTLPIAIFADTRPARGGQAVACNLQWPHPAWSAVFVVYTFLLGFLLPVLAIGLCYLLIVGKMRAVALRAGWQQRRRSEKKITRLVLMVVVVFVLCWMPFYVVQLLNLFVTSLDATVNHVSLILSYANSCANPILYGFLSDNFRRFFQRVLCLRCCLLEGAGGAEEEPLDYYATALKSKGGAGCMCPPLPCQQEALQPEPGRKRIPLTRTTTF
Sequence of Somatostatin receptor type 5 (P35346 whole entry): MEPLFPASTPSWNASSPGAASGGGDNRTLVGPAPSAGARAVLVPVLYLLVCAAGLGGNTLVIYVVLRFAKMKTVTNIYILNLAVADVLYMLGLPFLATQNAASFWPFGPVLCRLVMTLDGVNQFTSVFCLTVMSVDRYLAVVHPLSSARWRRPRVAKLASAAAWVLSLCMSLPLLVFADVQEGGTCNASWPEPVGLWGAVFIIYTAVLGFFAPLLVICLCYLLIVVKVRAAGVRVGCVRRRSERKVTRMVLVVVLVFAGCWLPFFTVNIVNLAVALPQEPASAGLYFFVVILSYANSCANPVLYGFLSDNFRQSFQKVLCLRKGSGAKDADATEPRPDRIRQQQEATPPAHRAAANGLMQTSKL
Sequence of Somatostatin receptor type 3 (P32745 whole entry): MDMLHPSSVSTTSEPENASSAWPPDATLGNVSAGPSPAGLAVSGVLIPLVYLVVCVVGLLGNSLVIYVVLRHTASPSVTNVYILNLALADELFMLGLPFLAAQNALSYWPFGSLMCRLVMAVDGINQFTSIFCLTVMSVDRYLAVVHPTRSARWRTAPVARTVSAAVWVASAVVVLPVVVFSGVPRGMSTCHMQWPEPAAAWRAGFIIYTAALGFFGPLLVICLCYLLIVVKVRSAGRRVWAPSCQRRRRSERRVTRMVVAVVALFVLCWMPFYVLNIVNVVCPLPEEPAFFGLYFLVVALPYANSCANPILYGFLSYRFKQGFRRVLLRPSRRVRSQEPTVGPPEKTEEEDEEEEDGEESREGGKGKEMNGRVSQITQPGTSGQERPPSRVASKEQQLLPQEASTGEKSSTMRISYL

Row | Structure (SMILES) | pIC50 [1] | pIC50 [2] | pIC50 [3] | pIC50 [4] | pIC50 [5]
1 | CC(C)NCc1ccc(C[C@@H]2NC(=O)[C@@H](Cc3c[nH]c4ccccc34)NC(=O)[C@H](Cc3ccccc3)NC(=O)[C@H](Cc3ccccc3)NC(=O)[C@H](CCCCN)NC(=O)[C@@H](N)CSSC[C@@H](C(=O)O)NC(=O)[C@H](CO)NC(=O)[C@H]([C@@H](C)O)NC(=O)[C@H](Cc3ccccc3)NC(=O)[C@H]([C@@H](C)O)NC2=O)cc1 (H-CKFF[dW][Phe(4-CH2NHiPr)]TFTSC-OH; disulfide 1-11) | 7.48 | – | – | – | –
2 | CC(C)NCc1ccc(C[C@@H]2NC(=O)[C@@H](Cc3c[nH]c4ccccc34)NC(=O)[C@H](Cc3ccccc3)NC(=O)[C@H](Cc3ccccc3)NC(=O)[C@H](CCCCN)NC(=O)[C@@H](N)CSSC[C@@H](C(=O)O)N(C)C(=O)[C@H](CO)NC(=O)[C@H]([C@@H](C)O)NC(=O)[C@H](Cc3ccccc3)NC(=O)[C@H]([C@@H](C)O)NC2=O)cc1 | 6.82 | < 6.00 | < 6.00 | < 6.00 | < 6.00
3 | CC(C)NCc1ccc(C[C@@H]2NC(=O)[C@@H](Cc3ccc4ccccc4c3)NC(=O)[C@H](Cc3ccccc3)NC(=O)[C@H](Cc3ccccc3)NC(=O)[C@H](CCCCN)NC(=O)[C@@H](N)CSSC[C@@H](C(=O)O)NC(=O)[C@H](CO)N(C)C(=O)[C@H]([C@@H](C)O)NC(=O)[C@H](Cc3ccccc3)NC(=O)[C@H]([C@@H](C)O)NC2=O)cc1 | 7.15 | < 6.00 | < 6.00 | < 6.00 | < 6.00
4 | CC(C)NCc1ccc(C[C@@H]2NC(=O)[C@@H](Cc3ccc4ccccc4c3)NC(=O)[C@H](Cc3ccccc3)NC(=O)[C@H](Cc3ccccc3)NC(=O)[C@H](CCCCN)NC(=O)[C@@H](N)CSSC[C@@H](C(=O)O)NC(=O)[C@H](CO)NC(=O)[C@H]([C@@H](C)O)NC(=O)[C@H](Cc3ccccc3)NC(=O)[C@H]([C@@H](C)O)NC2=O)cc1 (H-CKFF[d2Nal][Phe(4-CH2NHiPr)]TFTSC-OH; disulfide 1-11) | 6.61 | – | < 6.00 | – | –
5 | CC(C)NCc1ccc(C[C@@H]2NC(=O)[C@H](N(C)C(=O)c3ccc4ccccc4c3)NC(=O)[C@H](Cc3ccccc3)NC(=O)[C@H](Cc3ccccc3)NC(=O)[C@H](CCCCN)NC(=O)[C@@H](N)CSSC[C@@H](C(=O)O)NC(=O)[C@H](CO)NC(=O)[C@H]([C@@H](C)O)NC(=O)[C@H](Cc3ccc(O)cc3)NC(=O)[C@H]([C@@H](C)O)NC2=O)cc1 | 8.48 | < 6.00 | < 6.00 | 6.25 | < 6.00
6 | CC(C)NCc1ccc(C[C@@H]2NC(=O)[C@@H](Cc3ccc4ccccc4c3)NC(=O)[C@H](Cc3ccccc3)NC(=O)[C@H](Cc3ccccc3)NC(=O)[C@H](CCCCN)NC(=O)[C@@H](N)CSSC[C@@H](C(=O)N[C@@H](CCCCN)C(=O)N[C@@H](CCCCN)C(=O)N[C@@H](CCCCN)C(=O)O)N(C)C(=O)[C@H](CO)NC(=O)[C@H]([C@@H](C)O)NC(=O)[C@H](Cc3ccccc3)NC(=O)[C@H]([C@@H](C)O)NC2=O)cc1 | 6.84 | 6.21 | < 6.00 | < 6.00 | < 6.00
7 | CC(C)NCc1ccc(C[C@@H]2NC(=O)[C@@H](Cc3c[nH]c4ccccc34)NC(=O)[C@H](Cc3ccccc3)NC(=O)[C@H](Cc3ccccc3)NC(=O)[C@H](CCCCN)NC(=O)[C@@H](N)CSSC[C@@H](C(=O)O)NC(=O)[C@H](CO)NC(=O)[C@H]([C@@H](C)O)N(C)C(=O)[C@H](Cc3ccccc3)NC(=O)[C@H]([C@@H](C)O)NC2=O)cc1 | 7.12 | < 6.00 | < 6.00 | < 6.00 | < 6.00
8 | CC(C)NCc1ccc(C[C@H]2C(=O)N[C@@H]([C@@H](C)O)C(=O)N[C@@H](Cc3ccccc3)C(=O)N[C@@H]([C@@H](C)O)C(=O)N[C@@H](CO)C(=O)N[C@H](C(=O)O)CSSC[C@H](NC(=O)[C@@H](N)Cc3ccc(O)cc3)C(=O)N[C@@H](CCCCN)C(=O)N[C@@H](Cc3ccccc3)C(=O)N[C@@H](Cc3ccccc3)C(=O)N[C@H](Cc3c[nH]c4ccccc34)C(=O)N2C)cc1 (H-YCKFF[dW][NMePhe(4-CH2NHiPr)]TFTSC-OH; disulfide 2-12) | 7.80 | – | – | 6.61 | < 6.00
9 | C[C@H](N)C(=O)NCC(=O)N[C@H]1CSSC[C@@H](C(=O)O)NC(=O)[C@H](CO)NC(=O)[C@H]([C@@H](C)O)NC(=O)[C@H](Cc2ccccc2)NC(=O)[C@H]([C@@H](C)O)NC(=O)[C@H](CCCCN)NC(=O)[C@@H](Cc2c[nH]c3ccccc23)NC(=O)[C@H](Cc2ccccc2)NC(=O)[C@H](Cc2ccccc2)NC(=O)[C@H](CCCCN)NC1=O (H-AGCKFF[dW]KTFTSC-OH; disulfide 3-13) | 9.01 | – | – | – | –
10 | CC(C)NCc1ccc(C[C@@H]2NC(=O)[C@@H](Cc3c[nH]c4ccccc34)NC(=O)[C@H](Cc3ccccc3)NC(=O)[C@H](Cc3ccccc3)NC(=O)[C@H](CCCCN)NC(=O)[C@@H](N)CSSC[C@@H](C(=O)O)NC(=O)[C@H](CO)N(C)C(=O)[C@H]([C@@H](C)O)NC(=O)[C@H](Cc3ccccc3)NC(=O)[C@H]([C@@H](C)O)NC2=O)cc1 (H-CKFF[dW][Phe(4-CH2NHiPr)]TFT[NMeS]C-OH; disulfide 1-11) | 7.64 | < 6.00 | – | – | < 6.00
11 | CC(C)NCc1ccc(C[C@@H]2NC(=O)[C@@H](N(C)C(=O)c3ccc4ccccc4c3)NC(=O)[C@H](Cc3ccccc3)NC(=O)[C@H](Cc3ccccc3)NC(=O)[C@H](CCCCN)NC(=O)[C@@H](N)CSSC[C@@H](C(=O)O)NC(=O)[C@H](CO)NC(=O)[C@H]([C@@H](C)O)NC(=O)[C@H](Cc3ccc(O)cc3)NC(=O)[C@H]([C@@H](C)O)NC2=O)cc1 | < 6.00 | 6.05 | – | < 6.00 | –
12 | CC(C)NCc1ccc(C[C@H]2C(=O)N[C@@H]([C@@H](C)O)C(=O)N[C@@H](Cc3ccc(O)cc3)C(=O)N[C@@H]([C@@H](C)O)C(=O)N[C@@H](CO)C(=O)N[C@H](C(=O)O)CSSC[C@H](N)C(=O)N[C@@H](CCCCN)C(=O)N[C@@H](Cc3ccccc3)C(=O)N[C@@H](Cc3ccccc3)C(=O)N[C@H](Cc3c[nH]c4ccccc34)C(=O)N2C)cc1 (H-CKFF[dW][NMePhe(4-CH2NHiPr)]TYTSC-OH; disulfide 1-11) | – | – | < 6.00 | – | < 6.00
13 | CC(C)NCc1ccc(C[C@H]2C(=O)N[C@@H]([C@@H](C)O)C(=O)N[C@@H](Cc3ccc(O)cc3)C(=O)N[C@@H]([C@@H](C)O)C(=O)N[C@@H](CO)C(=O)N[C@H](C(=O)O)CSSC[C@H](N)C(=O)N[C@@H](CCCCN)C(=O)N[C@@H](Cc3ccccc3)C(=O)N[C@@H](Cc3ccccc3)C(=O)N[C@H](Cc3ccc4ccccc4c3)C(=O)N2C)cc1 (H-CKFF[d2Nal][NMePhe(4-CH2NHiPr)]TYTSC-OH; disulfide 1-11) | 7.60 | – | < 6.00 | – | < 6.00
14 | CC(C)NCc1ccc(C[C@H]2C(=O)N[C@@H]([C@@H](C)O)C(=O)N[C@@H](Cc3ccccc3)C(=O)N[C@@H]([C@@H](C)O)C(=O)N[C@@H](CO)C(=O)N[C@H](C(=O)O)CSSC[C@H](N)C(=O)N[C@@H](CCCCN)C(=O)N[C@@H](Cc3ccccc3)C(=O)N[C@@H](Cc3ccccc3)C(=O)N[C@H](Cc3ccc4ccccc4c3)C(=O)N2C)cc1 (H-CKFF[d2Nal][NMePhe(4-CH2NHiPr)]TFTSC-OH; disulfide 1-11) | 7.16 | – | < 6.00 | – | –
